Each structure is given as a SMILES string.

A short description of series [1]: Mice weight under high-lipid diet, 3-week pharmaco-nutritional regimen. It is filed as in vivo. The settings on record: after 3-week regimen; vs control regimen. How it is done:
(§1) 100 male mice C57 Black 6/J aged 5 weeks (January, France) were accommodated in individual cages in the pet center of the INRA center, Theix, in thermoregulated premises (20-22° C.) and submitted to alternating 12 hour-cycles of light and darkness. After a week of acclimatization under a <<control regimen>> (D12450B, Research Diet, USA), 20 mice continued this regimen for 11 weeks. The other 80 mice were fed with a ? high-lipid regimen ? (HL) (D12451, Research Diet, USA) for 8 weeks. The total calorie intake, in percentages, provided for both the <> and HL regimens 20% proteins and respectively, 70% and 35% carbohydrates and 10% and 45% lipids. […] The mice weight was measured every 2 weeks.

A short description of series [2]: Insulin sensitivity measurement (ipITT test). It is filed as in vivo, mice. The settings on record: for Insulin sensitivity: difference with high-lipid diet alone (HL), mice, 3 weeks. How it is done:
as §1
(§2) After a 3-week pharmaco-nutritional regimen, measurements of the insulin sensitivity and glucose tolerance were conducted respectively on 10 mice of each group after a fasting night. Insulin sensitivity measurement: basal glycemia was evaluated using a glucose meter (Glucotouch, Lifescan, USA) on blood droplets collected from the tail. An insulin dose of 0.75 mU/g of weight was administered through intraperitoneal injection and glycemia was evaluated 15, 30, 45, 60 and 120 minutes post injection. Glucose tolerance measurement: a glucose dose (2 mg/g of weight) was administered through intraperitoneal injection. Glycemia was evaluated as for the insulin sensitivity test before and 15, 30, 60 and 120 minutes post injection.

The nature of series [3]: Plasma dosages (non-esterified fatty acids, triglycerides, cholesterol, glucose). It is filed as in vivo, mice. The settings on record: for Cholesterolemia compared to control mice: ANOVA p=0.01. How it is done:
100 male mice C57 Black 6/J aged 5 weeks (January, France) were accommodated in individual cages in the pet center of the INRA center, Theix, in thermoregulated premises (20-22° C.) and submitted to alternating 12 hour-cycles of light and darkness. […] The mice weight was measured every 2 weeks. Prior to being sacrificed, mice after 15 h fasting were anesthetized through barbital intraperitoneal injection (1.5 μl/g). Blood was collected in EDTA-containing specimen collectors before being centrifuged (12000 rpm, 4 min, room temperature). Plasma was thereafter collected, distributed in aliquots and frozen in liquid nitrogen, then stored at −80° C. The adipose peri-epididymal tissue, liver and leg triceps muscle (gastrocnemius muscle), tibialis and quadriceps muscles were weighted, frozen in liquid nitrogen, then stored at −80° C.

Series [4] can be described thus: Body composition measurement through Echo MRI (body fat, lean body mass). It is filed as in vivo, mice. As to conditions: for Total body fat vs control regimen (Echo MRI): day 80, vs mice under control regimen; for Body fat: difference with high-lipid diet alone (HL), mice, 3 weeks. On the procedure:
as §1
Body fat and lean body mass of awake mice after 15 h fasting were quantified using nuclear magnetic resonance (Echo MRI, Houston, USA) at day 80 of the experiment.

Series [5] can be described thus: Glucose tolerance measurement (ipGTT test). It is filed as in vivo, mice. The settings on record: for Glucose tolerance: difference with high-lipid diet alone (HL), mice, 3 weeks; for Glucose tolerance compared to the control regimen: ipGTT, glucose 2 mg/g i.p., vs control. How it is done:
as §1, §2
Glucose tolerance measurement (ipGTT test): glucose tolerance is defined as the ability for a mouse to normalize its glycemia when injecting glucose. It is evaluated through the calculation of the area under the curve of the glycemia evolution after an injection of glucose.

Series [6] can be described thus: Organ and tissue weights at sacrifice (peri-epididymal adipose tissue, leg muscles, liver). It is filed as in vivo. As to conditions: vs mice under control regimen. How it is done: as §1
Prior to being sacrificed, mice after 15 h fasting were anesthetized through barbital intraperitoneal injection (1.5 μl/g). Blood was collected in EDTA-containing specimen collectors before being centrifuged (12000 rpm, 4 min, room temperature). Plasma was thereafter collected, distributed in aliquots and frozen in liquid nitrogen, then stored at −80° C. The adipose peri-epididymal tissue, liver and leg triceps muscle (gastrocnemius muscle), tibialis and quadriceps muscles were weighted, frozen in liquid nitrogen, then stored at −80° C.

For series [7] the following is noted: taking statin in the long term; cited from earlier work.
For series [8] the following is noted: conclusions of several clinical assays; cited from earlier work.
Setting [9] is: difference with high-lipid diet alone (HL), mice, 3 weeks.

Regarding `NC(=O)NCCC[C@H](N)C(=O)O` [L-citrulline, L-Citrulline], the “Mice weight as compared to the controls” value in series [1] is recorded as “significantly higher”. Moreover, the Insulin sensitivity entry in series [2] was “+5%”. The “Insulin sensitivity compared to controls” value in series [2] (ipITT, insulin 0.75 mU/g i.p., vs control) is “tend to be less sensitive to insulin”. For the same compound, in series [3] (setting [9]), the “Plasma levels: Non esterified fatty acids” value is recorded as −24% and the “Plasma levels: Triglycerides” value is −15%. Also, in series [3] (vs control mice), the “Plasma levels of non-esterified fatty acids compared to control mice” value is reported as “at a similar level compared to the control mice”, the “Triglyceridemia compared to control mice” value was “bring triglyceridemia back to the level of that obtained in control mice” and the “Cholesterolemia compared to control mice” value was “significant increase in cholesterolemia”. Besides, in series [4], the “Total body fat vs control regimen (Echo MRI)” value is reported as “+100%” and the Body fat was −7%. Moreover, in series [5], the Glucose tolerance entry is listed as “+7%” and the “Glucose tolerance compared to the control regimen” value is recorded as “significant reduction of glucose tolerance”. For the same compound, the “Weight of peri-epididymal adipose tissue vs control regimen” value in series [6] is given as “doubled”.
Take `CC(C)c1c(C(=O)Nc2ccccc2)c(-c2ccccc2)c(-c2ccc(F)cc2)n1CC[C@@H](O)C[C@@H](O)CC(=O)O` [Statin, Atorvastatin]: the “Influence on body fat” value in series [7] is “has not any positive influence on body fat”. Moreover, the “Mice weight as compared to the controls” value in series [1] is “significantly higher”. Further, the “Development of type 2 diabetes” value in series [8] is on record as “would promote the development of type 2 diabetes”. Moreover, in series [2], the Insulin sensitivity result is recorded as “+31%”. In series [3] (vs control mice), the “Triglyceridemia compared to control mice” value is listed as “bring triglyceridemia back to the level of that obtained in control mice” and the “Cholesterolemia compared to control mice” value was “significant increase in cholesterolemia”. In addition, in series [4], the “Total body fat vs control regimen (Echo MRI)” value was “+87%” and the Body fat is listed as −13%. Further, in series [5], the Glucose tolerance entry is “+11%” and the “Glucose tolerance compared to the control regimen” value is “significant reduction of glucose tolerance”. In addition, in series [6], the “Weight of peri-epididymal adipose tissue vs control regimen” value is reported as “doubled”.
For `CC(C)c1nc(N(C)S(C)(=O)=O)nc(-c2ccc(F)cc2)c1/C=C/[C@@H](O)C[C@@H](O)CC(=O)O` [rosuvastatin], the “Development of type 2 diabetes” value in series [8] is given as “would promote the development of type 2 diabetes”.

Source of the values: US20150017203A1, “COMBINATION PRODUCT FOR TREATING EXCESS WEIGHT AND/OR FOR IMPROVING THE FIGURE” (INSTITUT NATIONAL DE LA RECHERCHE AGRONOMIQUE - INRA, priority 2012, published 2015).
